# Key:
# sulfonylurea receptor [1] = target: T1, sulfonylurea receptor (Rattus norvegicus, UniProt Q09429); experiment: Intracellular Ca2+ rise on sulfonylurea in single clones derived from Langerhans islets (Fura-2AM); type: cell-based; settings: single clones M-6, M-9, M-15, M-19, M-20, M-33, M-43, F-1 and F-9; 0.5 mmol/L
# T1 construct: endogenous in cells; host or cells: rat islet-derived clones M-6, M-9, M-15, M-19, M-20, M-33, M-43, F-1, F-9
# Experimental: About 5×10^6 cells of single clones (M-6, M-9, M-15, M-19, M-20, M-33, M-43, F-1 and F-9) of immortalized cell lines mentioned in Example 11 obtained using an RPMI 1640 (05918) medium were plated on a 60-mm dish and cultured at 33° C. for 2 days using an RPMI 1640 (05918) medium.
# After the cultivation, it was washed with an HBSS buffer (manufactured by Gibco) for two times and the cells were floated. Sulfonylurea (Tolbutamide, manufactured by Alexis) was added to about 1×10^6 of the cells so as to make the final concentration 0.5 mmol/L whereupon an increase in Ca^2+ concentration in the cells was checked. Measurement of the Ca^2+ concentration in the cells was carried out using a CAF-100 instrument (manufactured by Nippon Bunko).
# sulfonylurea receptor [2] = experiment: Intracellular Ca2+ rise on sulfonylurea in immortalized cell lines derived from hypothalamus (Fura-2AM, CAF-110); type: cell-based, rat; settings: 0.5 mmol/L
# Experimental: The immortalized cell lines (a mixture) derived from hypothalamus of female adult rat obtained in Example 3 were cultured by the method mentioned in Example 1. […] The resulting cells were washed with an HBSS buffer (manufactured by Gibco) twice and the cells were floated. Sulfonylurea (Tolbutamide; manufactured by Alexis) was added to about 1×10^6 cell to make its final concentration 0.5 mmol/L and a rise in Ca^2+ concentration in the cells was checked. Measurement of the Ca^2+ concentration in the cells was conducted using a CAF-110 instrument (manufactured by Nippon Bunko).
# As same as in the above (1), reactivity of an immortalized cell line (single clone AMN2-25) derived from hypothalamus of male adult rat obtained in Example 3 with sulfonylurea was tested.
# CRE reporter in GBCC13 = experiment: Constitutive activity of GPCR, Method 2 (GBCC13 host, firefly luciferase); type: cell-based, human; settings: activity with 17β-estradiol divided by activity without, control plasmid about 1
# Experimental: After the incubation, Steady Glo Luciferase Assay System (manufactured by Promega) was added and firefly luciferase activity was measured. For the measurement of activity, Auto Lumat LB953 (manufactured by Berthold) or Top Count (Packard) was used. […] It is judged that the higher the induction ratio of the cells to which a GPCR expression plasmid was transfected, the stronger the constitutive activity of the GPCR.
# CRE reporter in GBC7 = experiment: Constitutive activity of GPCR, Method 4 (GBC7 host, firefly luciferase); type: cell-based, human; settings: activity with 17β-estradiol divided by activity without, control plasmid about 1
# Experimental: This is a measuring method for constitutive activity of GPCR which is the same as Method 2 except that GBC7 was used as a host and no puromycin was added in the incubation of the transformants.
# (§1) In each method, the induction ratio of the cells transfected with the control plasmid was about 1. It is judged that the higher the induction ratio of the cells to which a GPCR expression plasmid was transfected, the stronger the constitutive activity of the GPCR.
# leptin receptor (Ob-Rb) [3] = target: T2, leptin receptor (Ob-Rb) (Rattus norvegicus, UniProt Q62959); experiment: Leptin reactivity: change in expression of c-fos gene and SOCS-3 gene by PCR; type: cell-based; settings: NC-6, NC-12 and AMN2-25; 100 nmol/L human leptin, 0 minute, 30 minutes or 1 hour
# T2 construct: endogenous in cells; host or cells: rat hypothalamus-derived immortalized lines NC-6, NC-12, AMN2-25
# T2 sequence (Q62959 22-1162): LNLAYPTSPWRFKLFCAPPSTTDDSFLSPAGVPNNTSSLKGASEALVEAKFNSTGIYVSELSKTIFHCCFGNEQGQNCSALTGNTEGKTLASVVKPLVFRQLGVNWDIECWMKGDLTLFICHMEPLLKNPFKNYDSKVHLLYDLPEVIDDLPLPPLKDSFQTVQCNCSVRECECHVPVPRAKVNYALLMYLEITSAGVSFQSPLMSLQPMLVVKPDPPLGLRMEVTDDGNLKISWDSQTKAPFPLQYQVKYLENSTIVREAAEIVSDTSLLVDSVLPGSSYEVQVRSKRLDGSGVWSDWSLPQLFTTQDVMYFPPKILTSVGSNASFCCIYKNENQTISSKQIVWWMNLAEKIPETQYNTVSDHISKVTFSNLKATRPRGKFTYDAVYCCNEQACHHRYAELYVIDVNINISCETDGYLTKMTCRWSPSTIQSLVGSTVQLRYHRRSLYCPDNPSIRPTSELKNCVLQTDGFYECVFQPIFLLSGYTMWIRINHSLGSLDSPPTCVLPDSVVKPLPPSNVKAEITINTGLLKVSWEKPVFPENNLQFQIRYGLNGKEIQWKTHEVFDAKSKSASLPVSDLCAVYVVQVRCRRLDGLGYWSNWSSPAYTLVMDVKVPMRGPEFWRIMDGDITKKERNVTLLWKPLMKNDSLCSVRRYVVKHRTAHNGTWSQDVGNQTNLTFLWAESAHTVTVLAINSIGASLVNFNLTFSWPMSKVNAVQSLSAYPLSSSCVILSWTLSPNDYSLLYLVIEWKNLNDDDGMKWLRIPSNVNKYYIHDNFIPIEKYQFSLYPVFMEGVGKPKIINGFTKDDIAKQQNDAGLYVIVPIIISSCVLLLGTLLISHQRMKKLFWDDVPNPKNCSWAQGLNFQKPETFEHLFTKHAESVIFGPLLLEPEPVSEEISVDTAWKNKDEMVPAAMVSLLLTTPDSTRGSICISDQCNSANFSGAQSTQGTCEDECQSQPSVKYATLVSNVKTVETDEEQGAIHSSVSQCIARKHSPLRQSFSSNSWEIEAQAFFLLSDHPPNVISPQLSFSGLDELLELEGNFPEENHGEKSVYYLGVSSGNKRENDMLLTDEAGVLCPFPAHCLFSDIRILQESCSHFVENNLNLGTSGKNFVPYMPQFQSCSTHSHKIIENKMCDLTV
# Experimental: Expression of c-fos gene and SOCS-3 gene, which has been known to be increased in hypothalamic cells by leptin stimulation, was analyzed by the following method utilizing a PCR whereby the leptin reactivity of the cell line, which was confirmed to be expressing a functional OB-Rb in the above (1), was confirmed from another view.
# NC-6, NC-12 and AMN2-25 were cultured according to the method mentioned in Example 1. After the cultivation, about 2×10^4 cells were plated on a 35-mm dish coated with poly-lysine and cultured out for 5 days by shifting the cultivation temperature from 33° C. to 37° C. […] After the cultivation, exchange to a DMEM/F-12 (-FCS) medium was done.
# After 2 hours from the exchange of the medium, 100 nmol/L of human leptin (manufactured by R&D Systems) was added. After incubating at 37° C. for 0 minute, 30 minutes or 1 hour, total RNA was collected from each cell line using an RNeasy Mini Kit (manufactured by Qiagen). Single-stranded cDNA was synthesized from the total RNA according to the method mentioned in Example 6 and a PCR was carried out using the cDNA as a template. With regard to primers specific to c-fos gene, synthetic DNAs having the nucleotide sequences of SEQ ID NOS: 45 and 46 were used while, with regard to primers specific to SOCS-3 gene, synthetic DNAs having the nucleotide sequences of SEQ ID NOS: 47 and 48 were used. […]
# leptin receptor (Ob-Rb) [4] = target: T2, leptin receptor (Ob-Rb); experiment: Leptin reactivity: immunostaining using an anti-STAT antibody (STAT3 transfer from cytoplasm to nucleus); type: cell-based; settings: NC-6, NC-12 and AMN2-25; 100 nmol/L human leptin, 37° C., 15 minutes; without leptin cytoplasm was stained
# Experimental: In a cell line where expression of a leptin receptor (Ob-Rb) protein is confirmed by the method mentioned in Example 7, it was analyzed by the following method whether a functional Ob-Rb is expressed. The following method is a method where the fact that a transcription factor STAT3 is phosphorylated upon stimulation by leptin and is transferred from cytoplasm to nucleus is utilized.
# NC-6, NC-12 and AMN2-25 expressing leptin receptor (Ob-Rb) protein are cultured according to the method mentioned in Example 1. After the cultivation, about 1×10^3 cells were plated on 8 chambers coated with CELL-TAK and cultured for 3 days where cultivation temperature was shifted from 33° C. to 37° C. […] After the cultivation, exchange to a DMEM/F-12 (-FCS) medium was conducted. After 2 hours from the exchange of the medium, the cells were stimulated with 100 nmol/L of human leptin (manufactured by R&D Systems) at 37° C. for 15 minutes.
# After the stimulation, immunostaining was carried out using an anti-STAT antibody (manufactured by NEB) and a cyanine 3-labeled anti-rabbit IgG (secondary antibody) diluted to an extent of 200-fold. The immunostaining was carried out according to the manual of Phospho Plus Stat 3 (Tyr 705) Antibody it (NEB). […] After the staining, drying was conducted, mounting with a discoloration inhibitor solution was done and an observation under a fluorescence microscope was carried out.
# CRE reporter in GBCR2 = experiment: Constitutive activity of GPCR, Method 3 (GBCR2 host, Renilla reniformis luciferase); type: cell-based, human; settings: activity with 17β-estradiol divided by activity without, control plasmid about 1
# Experimental: This is a measuring method for constitutive activity of GPCR which is the same as Method 1 except that GBCR2 was used as a host and no puromycin was added in the incubation of the transformants.
# as §1
# T1 sequence (Q09429 whole entry): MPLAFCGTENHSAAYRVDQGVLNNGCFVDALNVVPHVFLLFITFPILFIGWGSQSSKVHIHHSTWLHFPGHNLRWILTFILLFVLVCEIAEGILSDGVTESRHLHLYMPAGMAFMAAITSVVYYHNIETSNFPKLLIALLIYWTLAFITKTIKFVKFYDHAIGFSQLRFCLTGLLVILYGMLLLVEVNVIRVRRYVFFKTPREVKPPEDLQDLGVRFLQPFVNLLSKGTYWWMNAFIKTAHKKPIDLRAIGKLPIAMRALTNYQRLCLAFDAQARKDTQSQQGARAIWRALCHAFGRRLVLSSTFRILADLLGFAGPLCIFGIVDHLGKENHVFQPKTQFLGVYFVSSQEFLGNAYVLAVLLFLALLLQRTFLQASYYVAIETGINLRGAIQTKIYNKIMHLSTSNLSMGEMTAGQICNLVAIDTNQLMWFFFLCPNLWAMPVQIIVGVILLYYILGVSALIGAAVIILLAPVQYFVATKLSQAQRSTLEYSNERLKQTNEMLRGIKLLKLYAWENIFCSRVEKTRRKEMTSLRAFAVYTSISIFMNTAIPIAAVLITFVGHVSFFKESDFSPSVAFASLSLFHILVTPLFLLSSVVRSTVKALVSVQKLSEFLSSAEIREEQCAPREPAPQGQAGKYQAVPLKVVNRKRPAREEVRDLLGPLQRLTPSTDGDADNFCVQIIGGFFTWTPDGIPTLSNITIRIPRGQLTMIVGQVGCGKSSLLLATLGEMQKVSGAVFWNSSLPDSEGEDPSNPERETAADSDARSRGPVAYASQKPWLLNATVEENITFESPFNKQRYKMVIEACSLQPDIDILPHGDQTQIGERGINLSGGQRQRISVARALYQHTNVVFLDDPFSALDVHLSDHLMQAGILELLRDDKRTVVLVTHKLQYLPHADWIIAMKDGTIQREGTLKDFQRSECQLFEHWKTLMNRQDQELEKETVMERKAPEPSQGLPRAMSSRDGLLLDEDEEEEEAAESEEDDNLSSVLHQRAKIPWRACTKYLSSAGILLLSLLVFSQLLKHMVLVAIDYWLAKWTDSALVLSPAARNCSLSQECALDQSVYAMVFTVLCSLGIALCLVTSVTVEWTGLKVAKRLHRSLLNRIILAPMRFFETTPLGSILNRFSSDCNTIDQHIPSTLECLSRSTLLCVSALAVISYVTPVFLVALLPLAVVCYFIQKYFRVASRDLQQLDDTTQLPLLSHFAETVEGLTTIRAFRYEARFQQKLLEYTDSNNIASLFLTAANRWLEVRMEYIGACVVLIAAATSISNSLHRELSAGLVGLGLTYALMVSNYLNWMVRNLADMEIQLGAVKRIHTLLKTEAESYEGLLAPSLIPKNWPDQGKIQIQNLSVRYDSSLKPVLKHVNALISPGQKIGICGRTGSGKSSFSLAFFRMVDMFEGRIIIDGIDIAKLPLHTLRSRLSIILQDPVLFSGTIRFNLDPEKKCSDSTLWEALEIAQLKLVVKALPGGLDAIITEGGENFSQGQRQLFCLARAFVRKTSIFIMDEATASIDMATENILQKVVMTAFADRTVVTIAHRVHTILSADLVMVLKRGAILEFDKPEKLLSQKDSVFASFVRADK
# T1 sequence (P70673 whole entry partner): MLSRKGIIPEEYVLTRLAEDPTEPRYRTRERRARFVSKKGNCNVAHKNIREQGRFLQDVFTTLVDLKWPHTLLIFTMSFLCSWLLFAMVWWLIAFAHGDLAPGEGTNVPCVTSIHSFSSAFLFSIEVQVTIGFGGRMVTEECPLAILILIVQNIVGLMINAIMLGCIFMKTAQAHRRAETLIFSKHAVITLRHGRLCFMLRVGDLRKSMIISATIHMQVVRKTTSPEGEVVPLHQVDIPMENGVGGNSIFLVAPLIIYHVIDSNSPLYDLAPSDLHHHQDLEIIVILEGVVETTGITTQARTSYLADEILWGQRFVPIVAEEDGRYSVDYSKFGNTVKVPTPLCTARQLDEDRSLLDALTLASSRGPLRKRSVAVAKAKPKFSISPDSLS
molecule,measurement,setting,value
"CCCCNC(=O)NS(=O)(=O)c1ccc(C)cc1 [sulfonylurea, Tolbutamide]",Ca2+ concentration in the cells,sulfonylurea receptor [1],increased
same,rise in Ca2+ concentration in the cells,sulfonylurea receptor [2]; immortalized cell lines (a mixture) from hypothalamus of female adult rat,cell lines which reacted with sulfonylurea were present
same,Ca2+ concentration in the cell,sulfonylurea receptor [2]; single clone AMN2-25,increased
GPR 25,Constitutive Activity (induction ratio),CRE reporter in GBCC13,4.8-fold
GPR 52,Constitutive Activity (induction ratio),CRE reporter in GBC7,40-fold
leptin: human leptin (manufactured by R&D Systems),expression of SOCS-3 gene by stimulation with leptin,leptin receptor (Ob-Rb) [3],increased
same,expression of c-fos gene by stimulation with leptin,leptin receptor (Ob-Rb) [3],increased
same,STAT3 immunostaining upon stimulation with leptin,leptin receptor (Ob-Rb) [4],the area inside the nucleus was stained
"GPR 12 (protein, UniProt P47775 1-334, looked up) G-protein coupled receptor 12: MNEDLKVNLSGLPRDYLDAAAAENISAAVSSRVPAVEPEPELVVNPWDIVLCTSGTLISCENAIVVLIIFHNPSLRAPMFLLIGSLALADLLAGIGLITNFVFAYLLQSEATKLVTIGLIVASFSASVCSLLAITVDRYLSLYYALTYHSERTVTFTYVMLVMLWGTSICLGLLPVMGWNCLRDESTCSVVRPLTKNNAAILSVSFLFMFALMLQLYIQICKIVMRHAHQIALQHHFLATSHYVTTRKGVSTLAIILGTFAACWMPFTLYSLIADYTYPSIYTYATLLPATYNSIINPVIYAFRNQEIQKALCLICCGCIPSSLAQRARSPSDV",Constitutive Activity (induction ratio),CRE reporter in GBCR2,188-fold

# Reference: US20100167397A1, “ENDOCRINE CELL LINES AND METHOD OF USING THE SAME” (KYOWA HAKKO KOGYO CO., LTD., priority 2002, published 2010)
